Experimental data taken from ChEMBL document CHEMBL4602670, “Palhinosides A-H: Flavone Glucosidic Truxinate Esters with Neuroprotective Activities from Palhinhaea cernua” (J Nat Prod, 2020).
Calls of active or inactive are those of the source. The rule behind the calls is not given here.

Each compound was assayed on HT-22 (assay: Neuroprotective activity against glutamate-induced cell damage in mouse HT22 assessed as increase cell viability at 0.6 to 15 uM after 24 hrs by luminescent cell viability assay).
Assay type: functional, cell-based

**Q.** Which Activity does the source give for `O=C(OC[C@H]1O[C@@H](Oc2cc(O)c3c(=O)cc(-c4ccc(O[C@H]5O[C@@H](CO)[C@H](O)[C@@H](O)[C@@H]5O)cc4)oc3c2)[C@H](O)[C@@H](O)[C@@H]1O)[C@H]1[C@H](C(=O)OC[C@H]2O[C@@H](Oc3cc(O)c4c(=O)cc(-c5ccc(O[C@H]6O[C@@H](CO)[C@H](O)[C@@H](O)[C@@H]6O)cc5)oc4c3)[C@H](O)[C@@H](O)[C@@H]2O)[C@H](c2ccc(O)cc2)[C@H]1c1ccc(O)cc1` here?
**A.** Its Activity is “inactive”.

**Q.** `O=C(OC[C@H]1O[C@@H](Oc2cc(O)c3c(=O)cc(-c4ccc(O[C@H]5O[C@@H](CO)[C@H](O)[C@@H](O)[C@@H]5O)cc4)oc3c2)[C@H](O)[C@@H](O)[C@@H]1O)[C@@H]1[C@H](C(=O)OC[C@H]2O[C@@H](Oc3cc(O)c4c(=O)cc(-c5ccc(O)cc5)oc4c3)[C@H](O)[C@@H](O)[C@@H]2O)[C@@H](c2ccc(O)cc2)[C@H]1c1ccc(O)cc1` was tested. Which Activity did it give?
**A.** Its Activity is “inactive”.

**Q.** Which Activity does the source give for `O=C(OC[C@H]1O[C@@H](Oc2cc(O)c3c(=O)cc(-c4ccc(O)cc4)oc3c2)[C@H](O)[C@@H](O)[C@@H]1O)[C@H]1[C@H](C(=O)OC[C@H]2O[C@@H](Oc3cc(O)c4c(=O)cc(-c5ccc(O[C@H]6O[C@@H](CO)[C@H](O)[C@@H](O)[C@@H]6O)cc5)oc4c3)[C@H](O)[C@@H](O)[C@@H]2O)[C@H](c2ccc(O)cc2)[C@H]1c1ccc(O)cc1` here?
**A.** Its Activity is “inactive”.

**Q.** How did the Activity turn out when `O=C(OC[C@H]1O[C@@H](Oc2cc(O)c3c(=O)cc(-c4ccc(O)cc4)oc3c2)[C@H](O)[C@@H](O)[C@@H]1O)[C@@H]1[C@H](C(=O)OC[C@H]2O[C@@H](Oc3cc(O)c4c(=O)cc(-c5ccc(O)cc5)oc4c3)[C@H](O)[C@@H](O)[C@@H]2O)[C@@H](c2ccc(O)cc2)[C@H]1c1ccc(O)cc1` was run?
**A.** The Activity was “inactive”.

The compounds below were run on HT-22 (assay: Neuroprotective activity in mouse HT22 assessed as decrease in glutamate-induced ROS generation preincubated for 8 hrs followed by addition of 2,7-dichlorofluorescein diacetate and measured after 30 mins by fluorescence based assay).
Assay type: functional, cell-based

**Q.** Which Activity does the source give for `COC(=O)[C@H]1[C@@H](C(=O)OC[C@H]2O[C@@H](Oc3cc(O)c4c(=O)cc(-c5ccc(O)cc5)oc4c3)[C@H](O)[C@@H](O)[C@@H]2O)[C@H](c2ccc(O)cc2)[C@@H]1c1ccc(O)cc1` here?
**A.** Its Activity is “Dose-dependent effect”.

These compounds were tested on HT-22 (assay: Neuroprotective activity against glutamate-induced cell damage in mouse HT22 assessed as increase cell viability at 1.3 to 15 uM after 24 hrs by luminescent cell viability assay).
Assay type: functional, cell-based

**Q.** `COC(=O)[C@H]1[C@H](C(=O)OC[C@H]2O[C@@H](Oc3cc(O)c4c(=O)cc(-c5ccc(O)cc5)oc4c3)[C@H](O)[C@@H](O)[C@@H]2O)[C@H](c2ccc(O)cc2)[C@H]1c1ccc(O)cc1` was tested. Which Activity did it give?
**A.** The Activity was “Active”.

**Q.** For `Cc1c(C)c2c(c(C)c1O)CCC(C)(C(=O)O)O2` (stereo not given), which Activity is on record?
**A.** The Activity was “Active”.

**Q.** How did the Activity turn out when `COC(=O)[C@H]1[C@@H](C(=O)OC[C@H]2O[C@@H](Oc3cc(O)c4c(=O)cc(-c5ccc(O[C@@H]6O[C@H](CO)[C@@H](O)[C@H](O)[C@H]6O)cc5)oc4c3)[C@H](O)[C@@H](O)[C@@H]2O)[C@H](c2ccc(O)cc2)[C@@H]1c1ccc(O)cc1` was run?
**A.** Its Activity is “Active”.

**Q.** `COC(=O)[C@H]1[C@H](C(=O)OC[C@H]2O[C@@H](Oc3cc(O)c4c(=O)cc(-c5ccc(O[C@@H]6O[C@H](CO)[C@@H](O)[C@H](O)[C@H]6O)cc5)oc4c3)[C@H](O)[C@@H](O)[C@@H]2O)[C@H](c2ccc(O)cc2)[C@H]1c1ccc(O)cc1` was tested. Which Activity did it give?
**A.** Its Activity is “Active”.

**Q.** With `COC(=O)[C@H]1[C@@H](C(=O)OC[C@H]2O[C@@H](Oc3cc(O)c4c(=O)cc(-c5ccc(O)cc5)oc4c3)[C@H](O)[C@@H](O)[C@@H]2O)[C@H](c2ccc(O)cc2)[C@@H]1c1ccc(O)cc1` as the compound, how does the Activity read?
**A.** Its Activity is “Active”.
